Read-outs that look alike come from different tables or passages of the source.
What was measured:
[1] = tested on: cyclic AMP phosphodiesterase; test: inhibition of cyclic AMP phosphodiesterase, human platelet; type: biochemical; details: 50% inhibition of cyclic AMP phosphodiesterase; read-out: I50, Platelet (human)
Procedure: (§1) The procedure of the experiment was carried out in accordance with the method described in H. Hidaka and M. Shibuya: title "A new assay of cyclic nucleotide phosphodiesterase and its application to humans", Biochemical Medicine, (in press).

aorta of rabbits = test: prevention of cholesterol-induced atherosclerosis in rabbits (surface covered by fatty streaks in the aorta); type: in vivo, albino rabbits; details: rabbit aorta; oral 1 mg/Kg daily, 15 weeks, diet with 1% cholesterol; placebo 54.6±5.4
Procedure: Forty healthy albino rabbits of the same age and of the same family were used in the experiment.
After the completion of the regimen, the rabbits were killed and the percentage of the surface covered by fatty streaks was measured in each aorta of the rabbits stained with Sundan IV. The percent of the surface covered by fatty streaks in the aorta of the rabbits was measured by the procedure described in T. Shimamoto, F. Numano, T. Fujita; American Heart Journal, 71, 2216 (1966).

[2] = tested on: spontaneously hypertensive rats; test: hypotensive effect in spontaneously hypertensive rats; type: in vivo, rat
Source text: The present compounds have a unique hypotensive effect in spontaneously hypertensive rats. The spontaneously hypertensive rats, abbreviated as SH rats, are produced by selective breeding of spontaneously hypertensive rats and continuous inbreeding with hypertensive mates, and they might be acknowledged as genetically hypertensive. It is believed that SH rats have a striking similarity to human essential hypertension and their reactions can be extrapolated to this morbid condition.
In the blood pressure test, SH rats weighing 210 - 250 g and aged 13-15 weeks were used, and the compounds tested were administered intraperitoneally. Each value in the Table V hows an average figure for three rats.

aortic wall of rabbits = test: regression of preestablished cholesterol-induced atherosclerosis in rabbits (cholesterol content of the aortic wall); type: in vivo, albino rabbits; details: oral 1 mg/Kg daily, head prints (μg)
Source text: For the regressive test, 50 healthy albino rabbits were fed with a diet containing 1% cholesterol for 15 weeks. Five rabbits were killed at the 15th week of the cholesterol feeding and the remaining 45 rabbits were divided into 3 groups. […] Five each of the rabbits of the 3 groups were killed after 6, 10 and 20 weeks, respectively. The total contents of cholesterol in the aortic wall were estimated by gas chromatography, the results of which are shown in the Table III.
1. The total content of cholesterol in the aortic wall was measured by the procedure described in T. Shimamoto, F. Numano, T. Fujita et al.; Asian med. Journal, 8. 12 (1965) 2. […] 3. The total chloesterol contents indicated in Table III were shown in μg per one mg of the dried aortic wall. The value in the Table is the average figure for 5 rabbits

[3] = biological target: cyclic AMP phosphodiesterase; test: inhibition of cyclic AMP phosphodiesterase, aortic wall media (rabbit); type: biochemical; details: 50% inhibition of cyclic AMP phosphodiesterase; read-out: I50, Aortic Wall, Media (rabbit)
Procedure: as §1

human platelet = human platelet aggregation in vitro induced by ADP or adrenaline (CPRP); type: cell-based; details: 200 s; for activity at 40 µg/mL: 40 μg/ml
Procedure: Samples of human CPRP (citrated platelet-rich plasma) were incubated at 37°C. for 200 sec. with 1/10 volume of saline containing various amount of the compound to be tested. To the mixture was then added ADP (3μMole) or adrenaline (1 μg/ml). Intensity of primary and secondary aggregation was measured with a platelet aggregation meter (Chrono-Log, Model 300).
Intensity of ADP- or adrenaline-induced aggregation of each sample, which was incubated with the compound, was compared with that of the same sample incubated with saline. The ratio was expressed as a percentage of intensity of aggregation with the compound against one with saline.
The intensity of primary and secondary aggregation of platelets was measured by the procedure described in H. Yamazaki, T. Sano, et al.; title[Platelet Functions in Thromboembolic Disorders] Thrombosis et Diatheses Haemorrhagica "in press" and the references cited therein.

[4] = biological target: cyclic AMP phosphodiesterase; test: inhibition of cyclic AMP phosphodiesterase, aortic wall intima (rabbit); type: biochemical; details: 50% inhibition of cyclic AMP phosphodiesterase; read-out: I50, Aortic Wall, Intima (rabbit)
Procedure: as §1

in vivo = details: mouse, oral, mice
[5] = 3.1 mg/Kg intraperitoneally, 1 hr
[6] = 3.1 mg/Kg intraperitoneally, 3 hr
[7] = 3.1 mg/Kg intraperitoneally, 6 hr
[8] = 3.1 mg/Kg intraperitoneally, 24 hr
[9] = 3.1 mg/Kg intraperitoneally, 48 hr
[10] = 12.5 mg/Kg intraperitoneally, 1 hr
[11] = 12.5 mg/Kg intraperitoneally, 3 hr
[12] = 12.5 mg/Kg intraperitoneally, 6 hr
[13] = 12.5 mg/Kg intraperitoneally, 24 hr
[14] = 12.5 mg/Kg intraperitoneally, 48 hr
[15] = 50 mg/Kg intraperitoneally, 1 hr
[16] = 50 mg/Kg intraperitoneally, 3 hr
[17] = 50 mg/Kg intraperitoneally, 6 hr
[18] = 50 mg/Kg intraperitoneally, 24 hr
[19] = 50 mg/Kg intraperitoneally, 48 hr
[20] = 50 mg/Kg intraperitoneally, before dosing
[21] = 5 μg/ml, intensity with compound vs saline, read-out: Inhibition ratio, primary aggregation, ADP 3 μM
[22] = 5 μg/ml, intensity with compound vs saline, read-out: Inhibition ratio, secondary aggregation, ADP 3 μM
[23] = 10 μg/ml, intensity with compound vs saline, read-out: Inhibition ratio, primary aggregation, ADP 3 μM
[24] = 10 μg/ml, intensity with compound vs saline, read-out: Inhibition ratio, secondary aggregation, ADP 3 μM
[25] = 20 μg/ml, intensity with compound vs saline, read-out: Inhibition ratio, primary aggregation, ADP 3 μM
[26] = 20 μg/ml, intensity with compound vs saline, read-out: Inhibition ratio, secondary aggregation, ADP 3 μM
[27] = read-out: Inhibition ratio, primary aggregation, Adrenaline 1μg/ml
[28] = read-out: Inhibition ratio, secondary aggregation, Adrenaline 1μg/ml

CCOC(=O)c1c(C)cc2c(CO)n[nH]c(=O)c2c1C [6,8-dimethyl-7-ethoxycarbonyl-4-hydroxymethyl-1-phthalazone]
Percent of surface covered by fatty streaks (aorta of rabbits): 16.2±4.3% | Blood Pressure [2, 5]: 170 | Depression % (blood pressure) [2, 5]: 1.7% | Blood Pressure [2, 6]: 138 | Depression % (blood pressure) [2, 6]: 20.2% | Blood Pressure [2, 7]: 110 | Depression % (blood pressure) [2, 7]: 36.4% | Blood Pressure [2, 8]: 135 | Depression % (blood pressure) [2, 8]: 22.0% | Blood Pressure [2, 9]: 150 | Depression % (blood pressure) [2, 9]: 13.3% | Blood Pressure ([2]; 3.1 mg/Kg intraperitoneally, before dosing): 173 | Blood Pressure [2, 10]: 173 | Depression % (blood pressure) [2, 10]: 1.1% | Blood Pressure [2, 11]: 155 | Depression % (blood pressure) [2, 11]: 11.4% | Blood Pressure [2, 12]: 120 | Depression % (blood pressure) [2, 12]: 28.6% | Blood Pressure [2, 13]: 142 | Depression % (blood pressure) [2, 13]: 18.9% | Blood Pressure [2, 14]: 155 | Depression % (blood pressure) [2, 14]: 11.4% | Blood Pressure ([2]; 12.5 mg/Kg intraperitoneally, before dosing): 175 | Blood Pressure [2, 15]: 165 | Depression % (blood pressure) [2, 15]: 2.9% | Blood Pressure [2, 16]: 132 | Depression % (blood pressure) [2, 16]: 22.4% | Blood Pressure [2, 17]: 110 | Depression % (blood pressure) [2, 17]: 35.3% | Blood Pressure [2, 18]: 145 | Depression % (blood pressure) [2, 18]: 14.7% | Blood Pressure [2, 19]: 152 | Depression % (blood pressure) [2, 19]: 10.6% | Blood Pressure [2, 20]: 170 | Cholesterol content (aortic wall, total) (aortic wall of rabbits; 6 weeks, placebo 32.1±3.6): 20.8±3.1 μg/mg dry weight | Cholesterol content (aortic wall, total) (aortic wall of rabbits; 10 weeks, placebo 33.8±3.0): 9.7±4.2 μg/mg dry weight | Cholesterol content (aortic wall, total) (aortic wall of rabbits; 20 weeks, placebo 29.5±5.4): 4.2±1.8 μg/mg dry weight | IC50 [3]: 24 µM | IC50 [1]: 4.1 µM | activity at 2.5 µg/mL (human platelet; 2.5 μg/ml, intensity with compound vs saline, read-out: Inhibition ratio, primary aggregation, ADP 3 μM): 91.7 ± 8.3% | activity at 2.5 µg/mL (human platelet; 2.5 μg/ml, intensity with compound vs saline, read-out: Inhibition ratio, secondary aggregation, ADP 3 μM): 96 ± 8.7% | activity at 5 µg/mL (human platelet; [21]): 93.3 ± 8.9% | activity at 5 µg/mL (human platelet; [22]): 59.8 ± 11.3% | activity at 10 µg/mL (human platelet; [23]): 90.6 ± 3.8% | activity at 10 µg/mL (human platelet; [24]): 49.9 ± 6.9% | activity at 20 µg/mL (human platelet; [25]): 93.1 ± 8.2% | activity at 20 µg/mL (human platelet; [26]): 56.2 ± 6.3% | activity at 40 µg/mL (human platelet; intensity with compound vs saline, read-out: Inhibition ratio, primary aggregation, ADP 3 μM): 68.5 ± 5.2% | activity at 40 µg/mL (human platelet; intensity with compound vs saline, read-out: Inhibition ratio, secondary aggregation, ADP 3 μM): 41.9 ± 2.2% | activity at 2.5 µg/mL (human platelet; [27]): 88.5 ± 3.1% | activity at 5 µg/mL (human platelet; [27]): 82.4 ± 3% | activity at 10 µg/mL (human platelet; [27]): 89.1 ± 7.3% | activity at 20 µg/mL (human platelet; [27]): 97.5 ± 7.5% | activity at 2.5 µg/mL (human platelet; [28]): 52.8 ± 7.5% | activity at 5 µg/mL (human platelet; [28]): 52.4 ± 7.3% | activity at 10 µg/mL (human platelet; [28]): 57.1 ± 16% | activity at 20 µg/mL (human platelet; [28]): 99.6 ± 13.2% | IC50 [4]: 1.6 µM

CCOC(=O)c1ccc2c(CO)n[nH]c(=O)c2c1 [7-ethoxycarbonyl-4-hydroxymethyl-1-phthalazone]
Percent of surface covered by fatty streaks (aorta of rabbits): 28.8±3.6% | LD50 (in vivo): 5000 mg/kg | Blood Pressure [2, 15]: 165 | Blood Pressure [2, 16]: 176 | Blood Pressure [2, 17]: 180 | Blood Pressure [2, 18]: 179 | Blood Pressure [2, 19]: 184 | Blood Pressure [2, 20]: 178 | hypotensive effect (in words) ([2]; intraperitoneal or oral doses up to 50 mg/Kg): did not exhibit a significant hypotensive effect | Cholesterol content (aortic wall, total) (aortic wall of rabbits; 6 weeks, placebo 32.1±3.6): 24.6±3.0 μg/mg dry weight | Cholesterol content (aortic wall, total) (aortic wall of rabbits; 10 weeks, placebo 33.8±3.0): 12.2±3.5 μg/mg dry weight | Cholesterol content (aortic wall, total) (aortic wall of rabbits; 20 weeks, placebo 29.5±5.4): 6.4±2.7 μg/mg dry weight | IC50 [3]: 144 µM | IC50 [1]: 57 µM | activity at 5 µg/mL (human platelet; [21]): 90.5 ± 5.6% | activity at 5 µg/mL (human platelet; [22]): 84.9 ± 6.3% | activity at 10 µg/mL (human platelet; [23]): 81.9 ± 5.2% | activity at 10 µg/mL (human platelet; [24]): 67.1 ± 6.3% | activity at 20 µg/mL (human platelet; [25]): 77 ± 5.1% | activity at 20 µg/mL (human platelet; [26]): 58.6 ± 7.6% | activity at 80 µg/mL (human platelet; 80 μg/ml, intensity with compound vs saline, read-out: Inhibition ratio, primary aggregation, ADP 3 μM): 62.9 ± 5% | activity at 80 µg/mL (human platelet; 80 μg/ml, intensity with compound vs saline, read-out: Inhibition ratio, secondary aggregation, ADP 3 μM): 15.7 ± 0.4% | activity at 5 µg/mL (human platelet; [27]): 106 ± 6.9% | activity at 10 µg/mL (human platelet; [27]): 97 ± 4.1% | activity at 20 µg/mL (human platelet; [27]): 92.9 ± 16.9% | activity at 5 µg/mL (human platelet; [28]): 80.8 ± 13.9% | activity at 10 µg/mL (human platelet; [28]): 82.1 ± 9.5% | activity at 20 µg/mL (human platelet; [28]): 71.7 ± 13.5% | activity at 80 µg/mL (human platelet; [28]): 33 ± 7.1% | IC50 [4]: 52 µM

Reference: patent publication US3963716A, “Novel 1-phthalazone derivative, a process for its preparation and a pharmaceutical composition containing it” (priority 1973, dated 1976)
